Measured values: PubChem BioAssay (NCI)
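Five compound concentrations were applied to cells in 96-well plates for 48 hours; endpoints were derived by simple linear interpolation of the resulting dose-response curve. Here, GI50 denotes the concentration required for 50% inhibition of growth. TGI denotes the concentration required for complete inhibition of growth.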 Where a SMILES comes first, the peptide text is derived from it.

Tests used:
Assay in all cases: NCI anticancer screen, dose series, 48 h
UACC-257 melanoma = system: UACC-257 melanoma
SK-OV-3 ovarian = system: SK-OV-3 ovarian
SW-620 colon = system: SW-620 colon
SNB-19 CNS = system: SNB-19 CNS
SNB-75 CNS = system: SNB-75 CNS
HS 578T breast = system: HS 578T breast
PC-3 prostate = system: PC-3 prostate
MDA-MB-435 = system: MDA-MB-435
HCT-15 colon = system: HCT-15 colon
NCI/ADR-RES ovarian = system: NCI/ADR-RES ovarian

Row | SMILES | TGI (UACC-257 melanoma) [µM] | TGI (SK-OV-3 ovarian) [µM] | TGI (SW-620 colon) [µM] | TGI (SNB-19 CNS) [µM] | TGI (SNB-75 CNS) [µM] | TGI (HS 578T breast) [µM] | TGI (PC-3 prostate) [µM] | TGI (MDA-MB-435) [µM] | GI50 (SK-OV-3 ovarian) [µM] | TGI (HCT-15 colon) [µM] | GI50 (SW-620 colon) [µM] | GI50 (NCI/ADR-RES ovarian) [µM] | TGI (NCI/ADR-RES ovarian) [µM]
1 | CCCCCCCCCCCCCC1=C(O)C(=O)C(CC2=C(O)C(=O)C(CCCCCCCCCCCCC)=C(O)C2=O)=C(O)C1=O | > 100 | > 100 | > 100 | 92.9 | 83 | > 100 | > 100 |  |  |  |  |  | 
2 | CC[C@@]1(O)C(=O)OCc2c1cc1n(c2=O)Cc2cc3ccccc3nc2-1 | 0.592 | 1.42 | 5.81 | > 30.9 | 0.314 | > 100 | > 100 | 0.285 | 0.0241 | 7.99 | 0.0246 | < 0.0143 | 0.125
3 | C=C1C(=O)O[C@@H]2/C=C(\C)CC/C=C(\C)CC[C@@]12O | 31.7 | 54.4 | 3.46 | 16.9 |  | 22.7 | 15.6 | 7.29 |  | 9.27 |  |  | 41.6
4 | COc1ccccc1CC(C)N (stereo not drawn) | > 100 | > 100 | > 100 | > 100 | > 100 |  |  |  |  | > 100 |  |  | 
5 | CCN1c2cc(Br)cc3[nH]c(=O)n(c23)CCC1C (stereo not drawn) | 40.6 | 49.4 | > 100 | > 100 | 32.4 | 28.9 | 39.7 | 16.8 |  | 35.5 |  |  | 23
6 | Nc1[nH]c(=S)nc2nc3c(c(-c4ccccc4)c12)CCCC3 |  | > 100 | > 100 | > 100 | > 100 | > 100 | > 100 | > 100 |  | > 100 |  |  | > 100
7 | O=C(CSCC(=O)N/N=C/c1ccccc1)N/N=C\c1ccccc1 | > 100 | > 100 | > 100 | > 100 | > 100 | > 100 | > 100 | > 100 |  | > 100 |  |  | > 100
8 | CCCCCCCCCCCCCCCCCCNc1ccn(C2OC(CO)C(OP(=O)(O)OCC(O)COP(=O)(O)OCC3OC(n4cc(F)c(NCCCCCCCCCCCCCCCCCC)nc4=O)CC3O)C2O)c(=O)n1 (stereo not drawn) | > 50 | > 50 | > 50 | > 50 | > 50 | > 50 | > 50 | > 50 |  | > 50 |  |  | > 50
9 | O=C(Oc1c(Cl)cc(C2(c3cc(Cl)c(OC(=O)c4ccccc4)c(Cl)c3)CCCCC2)cc1Cl)c1ccccc1 | 26.1 | 31.2 | 39.5 | 35.4 | 26.9 | 32.4 | 21.3 | 24.7 |  | 24.6 |  |  | 27.1
10 | OC[C@H]1NC[C@@H](O)[C@@H](O)[C@H]1O | > 100 | > 100 | > 100 | > 100 | > 100 | > 100 | > 100 | > 100 |  | > 100 |  |  | > 100
11 | CC(C)(C)OC(=O)N1C(OP(=O)(Oc2ccccc2)Oc2ccccc2)=CSc2ccccc21 | > 100 | > 100 | > 100 | > 100 | > 100 | > 100 | > 100 | > 100 |  | > 100 |  |  | > 100
12 | CC(C)CCCC(C)[C@H]1CC[C@H]2n3c(nc4ccccc43)CCC[C@]12C (stereo partly drawn) | 38.1 | 30.9 | 47.3 | 37.1 | 29.3 | 63.8 | 42.9 | 38.6 |  | 33.4 |  |  | 33.8
13 | CCc1n[nH]c(=O)n1/N=C(\C)c1ccc([N+](=O)[O-])cc1 | > 100 |  | > 100 | > 100 |  | > 100 | > 100 | > 100 |  | > 100 |  |  | > 100
14 | O=C(NC(Cc1ccc(Br)cc1)C(=O)O)c1ccc(I)cc1 (stereo not drawn) | > 100 | > 100 | > 100 | > 100 | > 100 |  |  |  |  | > 100 |  |  | > 100
15 | NC(=O)C1CCCN1C(=O)C(N)Cc1ccccc1 (stereo not drawn) (H-Phe-Pro-NH2; configuration not given here) |  |  | > 100 | > 100 |  |  | > 100 | > 100 |  | > 100 |  |  | > 100
16 | Clc1cc(Cl)c2cc3cccc[n+]3cc2c1Cl | 28.9 | 30.1 | 34.3 | 28.7 | 24.7 | 38.7 | 29.2 | 32.7 |  | 36.1 |  |  | 33.2
17 | Nc1ccc(O)c2c1C(=O)c1c(N)ccc(O)c1C2=O | > 100 | > 100 | > 100 | > 100 | > 100 |  |  |  |  | > 100 |  |  | 
18 | CN(C)CCNC(=O)c1cc(Cl)cc2cc3ccccc3nc12 | 3.66 | 9.27 | 7.02 | 7.47 | 6.09 |  |  |  |  | 11.4 |  |  | 5.82
